We go through six compounds from ChEMBL document CHEMBL4229414, “Design and synthesis of bridged piperidine and piperazine isosteres” (Bioorg Med Chem Lett, 2018).

Data set [1] concerns the target D(2) dopamine receptor (Homo sapiens) (UniProt P14416). The experiment in a line: Agonist activity at human D2L receptor expressed in CHOK1 cells assessed as inhibition of receptor response at 0.1 uM by calcium flux assay relative to control. It is filed as functional, cell-based.
The target is the same in data set [2]. Briefly: Agonist activity at human D2L receptor expressed in CHOK1 cells assessed as inhibition of receptor response at 10 uM by calcium flux assay relative to control. It is filed as functional, cell-based.
The target is the same in data set [3]. Briefly: Antagonist activity at human D2L receptor expressed in CHOK1 cells assessed as inhibition of dopamine-induced calcium flux at 0.1 uM by fluorescence assay relative to control. It is filed as functional, cell-based. On the technique in general: A change in cytosolic calcium serves as a functional read-out for many receptors and channels.
The target is the same in data set [4]. The experiment in a line: Antagonist activity at human D2L receptor expressed in CHOK1 cells assessed as inhibition of dopamine-induced calcium flux at 10 uM by fluorescence assay relative to control. It is filed as functional, cell-based.
The species named for data set [5] is Homo sapiens. The experiment in a line: Agonist activity at recombinant human D4.4 expressed in CHOK1 cells assessed as inhibition of receptor response at 0.1 uM by HTRF based cAMP assay relative to control. It is filed as cell-based. (Time-resolved FRET reads energy transfer from a long-lived donor to a nearby acceptor.)
The species entered for data set [6] is Homo sapiens. The experiment in a line: Agonist activity at recombinant human D4.4 expressed in CHOK1 cells assessed as inhibition of receptor response at 10 uM by HTRF based cAMP assay relative to control. It is filed as cell-based.
Data set [7] addresses T1, hERG (KCNH2) (Homo sapiens, UniProt Q12809). Briefly: (§1) Inhibition of human ERG at 1 uM relative to control.
The target of data set [8] is T1, hERG (KCNH2). Briefly: (§2) Inhibition of human ERG at 3 uM relative to control.
For data set [9], the target named is T1, hERG (KCNH2). Briefly: (§3) Inhibition of human ERG at 10 uM relative to control.
A short description of data set [10]: Passive permeability in human Caco2 cells. The following applies: caco-2. It is filed as ADME, cell-based. In general terms: Caco-2 cells form a polarised layer with tight junctions and transporters.
Data set [11] can be described thus: Efflux ratio of permeability in human Caco2 cells. It is filed as ADME, cell-based. The following applies: caco-2.
Data set [12] is described as follows: Stability in human microsomes. Note: time not given here. It is filed as ADME, Microsome.
Data set [13] in a line: Stability in rat microsomes. Note: time not given here. It is filed as ADME, Microsome.
Data set [14] can be described thus: Stability in mouse microsomes. Note: time not given here. It is filed as ADME, Microsome.
The target in data set [15] is T2, Voltage-gated inwardly rectifying potassium channel KCNH2 (Homo sapiens, UniProt Q12809). The description is as §1. The following applies: 1 µM.
T2 sequence (Q12809 whole entry): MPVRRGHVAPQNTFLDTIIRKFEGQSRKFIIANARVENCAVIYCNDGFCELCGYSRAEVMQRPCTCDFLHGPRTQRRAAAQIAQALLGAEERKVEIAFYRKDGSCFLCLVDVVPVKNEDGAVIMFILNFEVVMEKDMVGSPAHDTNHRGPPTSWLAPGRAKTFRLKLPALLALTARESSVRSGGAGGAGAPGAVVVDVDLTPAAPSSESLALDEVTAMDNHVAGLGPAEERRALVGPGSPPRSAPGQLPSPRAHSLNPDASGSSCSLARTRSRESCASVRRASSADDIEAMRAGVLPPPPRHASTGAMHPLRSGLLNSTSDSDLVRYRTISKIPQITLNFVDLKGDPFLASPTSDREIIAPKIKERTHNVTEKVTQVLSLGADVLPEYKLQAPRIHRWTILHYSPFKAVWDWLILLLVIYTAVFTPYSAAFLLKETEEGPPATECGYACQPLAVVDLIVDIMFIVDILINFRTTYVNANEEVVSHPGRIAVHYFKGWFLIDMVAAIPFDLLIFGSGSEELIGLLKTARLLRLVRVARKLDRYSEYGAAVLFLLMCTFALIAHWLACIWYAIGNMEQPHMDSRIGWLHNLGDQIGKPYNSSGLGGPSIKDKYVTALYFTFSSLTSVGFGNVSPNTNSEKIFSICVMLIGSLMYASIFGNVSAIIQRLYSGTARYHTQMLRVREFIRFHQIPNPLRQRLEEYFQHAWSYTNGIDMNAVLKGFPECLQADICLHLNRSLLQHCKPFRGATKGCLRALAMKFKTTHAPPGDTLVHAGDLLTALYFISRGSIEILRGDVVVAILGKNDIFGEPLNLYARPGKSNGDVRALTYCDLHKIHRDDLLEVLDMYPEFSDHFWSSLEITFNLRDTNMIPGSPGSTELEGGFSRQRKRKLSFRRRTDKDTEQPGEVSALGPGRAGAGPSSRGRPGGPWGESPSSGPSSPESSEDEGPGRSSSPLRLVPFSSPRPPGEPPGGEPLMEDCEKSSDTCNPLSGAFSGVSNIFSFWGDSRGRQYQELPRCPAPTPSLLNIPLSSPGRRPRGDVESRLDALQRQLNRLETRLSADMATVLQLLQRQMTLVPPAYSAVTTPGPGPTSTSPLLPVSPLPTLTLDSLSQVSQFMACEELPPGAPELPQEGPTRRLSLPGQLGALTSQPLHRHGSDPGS
Data set [16] addresses T2, Voltage-gated inwardly rectifying potassium channel KCNH2. The data set is described as §2. The following applies: 3 µM.
For data set [17] the target is unchanged. The description is as §3. The following applies: 10 µM.

Sequence of D(2) dopamine receptor (Homo sapiens) (P14416 whole entry): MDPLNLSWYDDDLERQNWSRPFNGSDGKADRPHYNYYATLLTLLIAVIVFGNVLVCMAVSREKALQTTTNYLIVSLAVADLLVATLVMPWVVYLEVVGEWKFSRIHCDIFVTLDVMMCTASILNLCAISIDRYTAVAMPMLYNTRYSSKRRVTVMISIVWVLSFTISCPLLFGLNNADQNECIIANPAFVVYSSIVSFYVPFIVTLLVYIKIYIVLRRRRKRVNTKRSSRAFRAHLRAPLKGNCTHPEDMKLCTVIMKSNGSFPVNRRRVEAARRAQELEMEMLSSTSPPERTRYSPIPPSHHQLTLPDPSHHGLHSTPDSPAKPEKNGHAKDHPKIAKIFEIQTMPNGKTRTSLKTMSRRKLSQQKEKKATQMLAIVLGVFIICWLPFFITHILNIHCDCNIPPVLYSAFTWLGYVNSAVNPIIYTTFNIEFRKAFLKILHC
T1 sequence (Q12809 whole entry): as the sequence (Q12809 whole entry) above

By inhibition is commonly meant the change of the read-out against control, counted positive when it falls. What is called efflux ratio is the permeability from basolateral to apical divided by that in the opposite direction, in the common usage. For the compound `CCCN1[C@H]2CC[C@H]1CC(c1cccc(OC)c1)C2` (relative stereo), the inhibition was found to be 9% in [1]; 32% in data set [2]; 12% in [3]; 13% in [4]; 4% in the data set filed under Homo sapiens [5]; 16% in the data set filed under Homo sapiens [6]. The inhibition at 1 µM at hERG (KCNH2) [7] is 30%. Moreover, the inhibition at 3 µM on hERG (KCNH2) [8] worked out at 54%. On hERG (KCNH2) [9], the inhibition at 10 µM was determined as 81%. The same compound displayed a permeability in [10] of 100%. Besides, in [11], the efflux ratio came out at 2.6. The results for the Stability in [12], in data set [13] and in [14] were 4%, 2% and 3%, respectively.

As for `CCCN1[C@H]2CC[C@H]1CC(c1ccc(OC)cc1)C2` (relative stereo), the inhibition in data set [1] was -1%; in [2], 40%; in data set [3], 0%; in [4], 9%; in the data set filed under Homo sapiens [5], 9%; in the data set filed under Homo sapiens [6] it was 21%. The inhibition at 1 µM on hERG (KCNH2) [7] was 58%. Also, the inhibition at 3 µM against hERG (KCNH2) [8] worked out at 78%. For the same compound, the inhibition at 10 µM against hERG (KCNH2) [9] turned out to be 93%. The same compound came in with a permeability in data set [10] of 100%. Moreover, in data set [11], the efflux ratio was found to be 3. For the same compound, the Stability is listed as 8% in data set [12], 2% in data set [13] and 5% in data set [14].

Take `CCCN1[C@H]2CC[C@H]1CC(c1ccccc1OC)C2` (relative stereo; 4): the “inhibition (INH)” value was determined as 10% in data set [15], 25% in [16] and 56.5% in [17]. For the same compound, the permeability in data set [10] was 99.7%. The Ratio in data set [11] is recorded as 4.1. For the same compound, the values for the Stability in data set [12] and in data set [14] were 62% and 6%, respectively.

On to `CCCN1[C@H]2CC[C@H]1CC(c1ccccc1OC)C2` (relative stereo; 8a), for which the figures for the “inhibition (INH)” value in data set [15] and in data set [16] were 22% and 46%, respectively. The inhibition at 10 µM on hERG (KCNH2) [9] came out at 74%. In data set [10], this compound showed a permeability of 100%. In addition, the efflux ratio in data set [11] was determined as 2.9. Moreover, the Stability worked out at 25% in [12], 2% in data set [13] and 3% in [14].

As for `CCCN1[C@H]2COC[C@H]1CC(c1ccccc1OC)C2` (relative stereo; 16), the “inhibition (INH)” value came to 6% in data set [15], 17% in data set [16] and 39% in data set [17]. Moreover, the Ratio in data set [11] came out at 3.1. The values for the Stability in [12] and in data set [14] were 35% and 7%, respectively.

Consider `CCCN1[C@H]2COC[C@H]1CC(c1ccccc1OC)C2` (relative stereo; 20), for which the “inhibition (INH)” value in data set [15] was determined as 17%; in data set [17] it was 64%. The inhibition at 3 µM at hERG (KCNH2) [8] is 34%. The permeability in data set [10] was 100%. In addition, the efflux ratio in [11] turned out to be 2.3. Also, the Stability is given as 42% in [12], 1% in data set [13] and 2% in data set [14].
